According to patent US20240228572A1 (i2o Therapeutics, Inc., priority 2020, published 2024):
pEC50: −log10 of the molar value. *1 amine or outer side, *2 acyl side, *3 side chain or, on linkers, in order; H or OH if unused. Where a SMILES comes first, the peptide text is derived from it. Side-chain parts run from the residue outwards. [ ]: non-standard residue; d: D form. The star is where a group is joined. C20 diacid = O=C(O)CCCCCCCCCCCCCCCCCCC(=O)*; γGlu = O=C(O)[C@H](CCC(=O)[*:2])N[*:1]; AEEA = NCCOCCOCC(=O)O; Aib = CC(C)(N)C(=O)O

Tests used:
hGIPR = target: T1, hGIPR (Homo sapiens, UniProt P48546); assay: cAMP accumulation assay, hGIPR; type: cell-based
T1 sequence (P48546 22-466): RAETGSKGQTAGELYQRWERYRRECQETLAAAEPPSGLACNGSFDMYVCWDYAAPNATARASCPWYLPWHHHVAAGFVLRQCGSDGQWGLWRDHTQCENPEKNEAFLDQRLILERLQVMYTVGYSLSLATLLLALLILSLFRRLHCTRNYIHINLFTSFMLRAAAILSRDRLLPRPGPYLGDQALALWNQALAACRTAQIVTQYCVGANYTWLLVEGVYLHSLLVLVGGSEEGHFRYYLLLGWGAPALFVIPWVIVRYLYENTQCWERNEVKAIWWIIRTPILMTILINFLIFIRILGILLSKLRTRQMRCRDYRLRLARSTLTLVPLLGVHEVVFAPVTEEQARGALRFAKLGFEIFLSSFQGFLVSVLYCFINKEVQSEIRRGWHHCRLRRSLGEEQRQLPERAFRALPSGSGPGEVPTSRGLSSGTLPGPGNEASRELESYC
Protocol: On day 1, CHO-K1 cells were plated at 1.5 million cells per T75 flask in 90% F12-K media supplemented with 10% FBS. On day 3 cells were transfected with 40 mcg of each expression plasmid using Lipofectamine 2000 transfection reagent. On day 5, cells were dispensed at 1000 cells per well in white 384-well OptiPlates in 5 mcL of assay buffer consisting of 1×HBSS, 5 mM HEPES, 0.5 mM IBMX, and 0.1% casein.
Peptides were serially diluted 4-fold in assay buffer to final concentrations ranging from 1×10^−9 M to 9.5×10^−16 M. Two assay controls consisting of 50 mcM forskolin (cAMP system maximum) or assay buffer only (cAMP system minimum) were also prepared. Five microliters of each peptide-concentration, or assay control, was added to triplicate wells and incubated for thirty minutes at room temperature. […] Plates were read on an Envision fluorescent plate reader (PerkinElmer).
Test values were first normalized to the system maximum and system minimum averaged values in Excel using the formula: (test value−system min average)/(system max average -system min average)*100. […] Data from up to 3 replicate tests were analyzed for each peptide. […]

[1] = Metabolic stability in rat kidney brush border membranes (kBBM); type: in vitro ADME; settings: 1 mcM peptide, 50 mcg protein/mL, 37° C., pH 7.4, read-out: kBBM t½ (converted)
Protocol: Brush border membranes from rat and human kidney tissue were prepared via centrifugation and stored at −70° C. Thawed stocks of rat or human kBBM were diluted to the appropriate concentration in 25 mM HEPES buffer (pH 7.4) containing 1% casein and aliquoted into a 96-well plate. The kBBM solutions were pre-warmed for 10 minutes at 37° C. Reactions were initiated by the addition of test peptide (1 mcM final concentration) also dissolved in 25 mM HEPES buffer (pH 7.4) containing 1% casein. The final concentration of kBBM in each incubation was 50 mcg protein/mL. Reactions were maintained at 37° C. in a shaking water bath. At 0, 0.25, 0.5, 1.0, 2.0, and 4.0 h post-initiation, 30 mcL of the reaction mixture was removed and placed into a 96-well plate containing 120 mcL of ice-cold methanol containing 2.5% formic acid. Quenched samples were centrifuged at 2178×g for 10 min and then a portion of the supernatants were transferred to a clean 96-well plate and diluted 1:1 with water.

serum albumin [2] = target: serum albumin (Macaca fascicularis, UniProt A2V9Z4); assay: Fraction unbound (fu) in plasma by surface plasmon resonance, monkey; type: in vitro ADME; settings: SPR binding to serum albumin
serum albumin (Macaca fascicularis, UniProt A2V9Z4), sequence (A2V9Z4 25-608): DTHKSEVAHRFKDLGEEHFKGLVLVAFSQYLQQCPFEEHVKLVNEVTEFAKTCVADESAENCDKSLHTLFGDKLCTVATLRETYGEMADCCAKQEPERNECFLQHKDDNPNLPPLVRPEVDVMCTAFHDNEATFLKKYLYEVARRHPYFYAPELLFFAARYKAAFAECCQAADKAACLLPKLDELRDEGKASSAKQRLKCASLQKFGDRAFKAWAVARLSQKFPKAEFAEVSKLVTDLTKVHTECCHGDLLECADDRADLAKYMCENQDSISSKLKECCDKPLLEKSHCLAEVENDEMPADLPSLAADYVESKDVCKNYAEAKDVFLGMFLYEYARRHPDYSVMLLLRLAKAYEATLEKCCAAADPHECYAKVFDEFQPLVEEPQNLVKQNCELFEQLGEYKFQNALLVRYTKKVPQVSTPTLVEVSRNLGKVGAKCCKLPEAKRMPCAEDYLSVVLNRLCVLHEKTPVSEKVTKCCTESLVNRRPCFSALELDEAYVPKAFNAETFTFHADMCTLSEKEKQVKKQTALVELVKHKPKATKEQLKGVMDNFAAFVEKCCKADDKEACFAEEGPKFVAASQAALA
Protocol: (§1) Conventional methods of measuring plasma protein binding, such as equilibrium dialysis, ultrafiltration and ultracentrifugation, are not reliable with peptides because of their tendency to adsorb to the surface of plastic tubing, dialysis membranes and molecular weight cut-off filters. As a result, the extent to which acylated peptides bind to serum albumin was evaluated using surface plasmon resonance (SPR).

serum albumin [3] = target: serum albumin (Homo sapiens, UniProt P02768); assay: Fraction unbound (fu) in plasma by surface plasmon resonance, human; type: in vitro ADME; settings: SPR binding to serum albumin
serum albumin (Homo sapiens, UniProt P02768), sequence (P02768 25-609): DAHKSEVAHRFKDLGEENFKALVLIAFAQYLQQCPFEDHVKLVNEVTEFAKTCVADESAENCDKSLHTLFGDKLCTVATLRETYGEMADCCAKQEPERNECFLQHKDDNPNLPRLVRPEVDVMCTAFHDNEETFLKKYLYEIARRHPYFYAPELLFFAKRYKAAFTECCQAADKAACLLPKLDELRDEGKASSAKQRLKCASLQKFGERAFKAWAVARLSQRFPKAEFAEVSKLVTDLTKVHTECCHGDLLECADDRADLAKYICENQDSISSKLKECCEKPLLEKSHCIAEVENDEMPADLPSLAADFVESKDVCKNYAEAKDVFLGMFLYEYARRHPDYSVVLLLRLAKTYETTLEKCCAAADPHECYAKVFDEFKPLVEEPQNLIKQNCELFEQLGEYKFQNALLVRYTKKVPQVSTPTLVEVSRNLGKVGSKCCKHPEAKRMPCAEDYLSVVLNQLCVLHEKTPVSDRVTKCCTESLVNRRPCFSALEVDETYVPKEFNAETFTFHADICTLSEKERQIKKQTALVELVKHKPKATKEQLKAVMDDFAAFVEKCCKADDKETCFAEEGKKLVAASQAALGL
Protocol: as §1

[4] = Intravenous infusion pharmacokinetics in rats; type: in vivo; settings: rat, plasma, IV infusion 0.033 mg/kg, male Sprague-Dawley rats
Protocol: Peptides were dissolved in 0.05% Tween-20 in phosphate buffered saline and administered as a 1-hour intravenous infusion to non-fasted male Sprague-Dawley rats (n=3 per group) via femoral vein cannula at a final dose of 0.033 mg/kg. Formulations were administered at a rate of 1.67 mL/kg/h. Blood samples (approximately 250 μL) were collected for pharmacokinetic analysis via a jugular vein cannula at 0.25, 0.5, 0.75, 1, 1.17, 1.33, 1.5, 2, 4, 8, 24, 48, 72, and 96 hours post-start of infusion into microtainer tubes containing K2EDTA as anticoagulant and 25 μL of a protease inhibitor cocktail. Plasma was prepared by centrifugation and stored at −80° C. until analysis.
A 70 μL aliquot of each plasma sample was placed into to a 96-well plate. To each well was added 210 μL of 0.1% TFA in 2:1 ethanol:acetonitrile containing an appropriate internal standard. Plates were vortex mixed for 10 min at 1300 rpm, and then centrifuged for 10 min at 500× g. Supernatants (210 μL) were placed into a clean 96-well plate and evaporated under a nitrogen stream at 45° C. Residues were reconstituted in 80 μL of 20% acetonitrile (aq) containing 0.1% formic acid.
All calibration standards were prepared in control rat plasma containing K2EDTA and protease inhibitor cocktail.
Samples and standards were analyzed by electrospray ionization (ESI) UPLC-MS/MS using a system consisting of a CTC HTS PAL auto-injector (Leap, Carrboro, NC), an Agilent Infinity 1290 system with column oven (Palo Alto, CA), a Valco switching valve (Houston, TX), and a Sciex TripleTOF® 5600 mass spectrometer (Framingham, MA). Samples were injected onto a 2.1×50 mm reverse phase C18 analytical column, typically a Waters CORTECS UPLC C18+, 1.6 μm (Waters Corporation, Milford, MA) or similar. […] Initial conditions consisted of 95% A and 5% B. The organic component was increased to 95% B over a period of 3-4 minutes, depending on the peptide. Typical flow rates were 550 μL/min. The column temperature was held constant at 45° C. Peptides were quantified by monitoring one or more product ions produced from a multiply charged parent ion.

## CC(C)C[C@H](NC(=O)[C@H](Cc1ccc(O)cc1)NC(=O)[C@H](CCCCN)NC(=O)[C@H](CO)NC(=O)[C@H](Cc1ccc(O)cc1)NC(=O)[C@H](CC(=O)O)NC(=O)[C@H](CO)NC(=O)[C@@H](NC(=O)[C@H](Cc1ccccc1)NC(=O)[C@@H](NC(=O)CNC(=O)[C@H](Cc1c[nH]cn1)NC(=O)[C@H](CO)NC(=O)[C@@H](N)Cc1ccc(O)cc1)[C@@H](C)O)[C@@H](C)O)C(=O)N[C@@H](CC(=O)O)C(=O)NC(C)(C)C(=O)N[C@@H](CCCCN)C(=O)N[C@@H](Cc1ccc(O)cc1)C(=O)N[C@@H](C)C(=O)N[C@@H](CCC(N)=O)C(=O)N[C@@H](CCCCNC(=O)CC[C@H](NC(=O)CC[C@H](NC(=O)COCCOCCNC(=O)CCCCCCCCCCCCCCCCCCC(=O)O)C(=O)O)C(=O)O)C(=O)N[C@@H](Cc1ccccc1)C(=O)N[C@H](C(=O)NC(C)(C)C(=O)N[C@@H](Cc1c[nH]c2ccccc12)C(=O)N[C@@H](CC(C)C)C(=O)N[C@@H](CCC(=O)O)C(=O)N[C@@H](CC(=O)O)C(=O)N[C@@H](CCC(=O)O)C(=O)N1CCC[C@H]1C(=O)N[C@@H](CO)C(=O)N[C@@H](CO)C(=O)NCC(=O)N[C@@H](C)C(=O)N1CCC[C@H]1C(=O)N1CCC[C@H]1C(=O)N1CCC[C@H]1C(=O)N[C@@H](CO)C(=O)O)C(C)C [Compound A6] (H-YSHGTFTSDYSKYLD[Aib]KYAQK([γGlu-γGlu-AEEA-C20 diacid])FV[Aib]WLEDEPSSGAPPPS-OH; N-terminus assumed)
hGIPR
  pEC50: < 9.00
[1]
  half-life at 1 mcM: 6.6 h
Serum albumin [2]
  fraction unbound: 0.0048
Serum albumin [3]
  fraction unbound: 0.0072
[4]; 1-hour
  clearance: 4.97 mL/h/kg
[4]
  half-life: 13 h
[4]; read-out: Vss
  Vd: 0.0867 L/kg
